In paper PMC10649008 (Antimicrobial Agents and Chemotherapy, 2023):
Read-outs that look alike come from different tables or passages of the source.

Columns and labels:
[1] = Source text: All study procedures were reviewed and approved by the respective Institutional Review Board for each study site. Prior to any study procedures, written informed consent from a parent or legal guardian and assent (if appropriate for older patients) were obtained. The patient population consisted of subjects aged >12 months to <17 years of age who required systemic antibiotic therapy for the treatment or prevention of known or suspected bacterial infection. Subjects were enrolled into four cohorts stratified by age: adolescents (12–17 years of age), older children (6–11 years of age), younger children (2–5 years of age), and infants (1–2 years of age). […] The study consisted of a screening period followed by a treatment period and a safety follow-up period through Day 8 ± 1 day.
(§1) Safety was monitored during both the screening and treatment periods by physical exams, vital signs, urinalysis, and clinical laboratory measures (complete blood count with differential, serum chemistry, creatinine, and liver enzymes); AEs and concomitant medications were recorded from screening through follow-up on Day 8 (± 1 day). Medical and medication history and demographics were collected at screening. Vital signs (heart rate, blood pressure, respiratory rate, and body temperature) were collected at screening, Days 1 and 2 of the study.

[2] = post-dose, single 10 mg/kg IV
Procedure: as §1

[3] = Cohort 1 (12–17 years), of 16 AEs, single 10 mg/kg IV
[4] = Cohort 2 (6–11 years), of 11 AEs, single 10 mg/kg IV
[5] = all cohorts, three of 22 subjects, single 10 mg/kg IV
[6] = all cohorts, two of 22 subjects, single 10 mg/kg IV

Question: Which results are given for `CCCCCCCCCCNCCN[C@@]1(C)C[C@H](O[C@H]2[C@H](Oc3c4cc5cc3Oc3ccc(cc3Cl)[C@@H](O)[C@@H](NC(=O)[C@@H](CC(C)C)NC)C(=O)N[C@@H](CC(N)=O)C(=O)N[C@H]5C(=O)N[C@H]3C(=O)N[C@H](C(=O)N[C@H](C(=O)O)c5cc(O)c(CNCP(=O)(O)O)c(O)c5-c5cc3ccc5O)[C@H](O)c3ccc(c(Cl)c3)O4)O[C@H](CO)[C@@H](O)[C@@H]2O)O[C@@H](C)[C@H]1O` [telavancin]?
Answer: Number of adverse events ([1]; Cohort 1 (12–17 years), N = 14, across six patients, single 10 mg/kg IV): 16; Adverse events deemed probably related to telavancin administration ([1]; Cohort 1 (12–17 years), fifteen of the 16 events): 94%; Number of adverse events mild in severity [1, 3]: 13; Number of adverse events moderate in severity [1, 3]: 3; Number of adverse events ([1]; Cohort 2 (6–11 years), N = 7, across four patients, single 10 mg/kg IV): 11; Number of adverse events mild in severity [1, 4]: nine; Number of adverse events moderate in severity [1, 4]: two; Adverse events considered probably related to telavancin administration ([1]; Cohort 2 (6–11 years), six of the 11 events): 55%; Adverse events ([1]; Cohort 3 (2–5 years), single subject, single 10 mg/kg IV): No AEs were reported; Subjects with adverse events ([1]; all cohorts, 10 of the 22 subjects, single 10 mg/kg IV, through Day 8 ± 1): 45%; Total number of adverse events (AEs) ([1]; all cohorts, 22 subjects 2–17 years, single 10 mg/kg IV, through Day 8 ± 1): 27; Serious adverse events ([1]; all cohorts, 22 subjects, single 10 mg/kg IV): no serious AEs; Subjects with nausea ([1]; all cohorts, four of 22 subjects, single 10 mg/kg IV): 18%; Subjects with foamy urine [1, 5]: 14%; Subjects with taste disturbance/metallic taste [1, 5]: 14%; Subjects with dizziness [1, 6]: 9%; Subjects with headache [1, 6]: 9%; Tolerability of a single dose ([1]; all pediatric age cohorts, single 10 mg/kg IV): well-tolerated; QT interval (12-lead ECG) ([1]; one subject in Cohort 2 (6–11 years), ECG 1.5–2.5 h after start of infusion, moderate, resolved prior to Day 8): prolonged QT interval; Infusion reactions ([1]; single 10 mg/kg infusion administered over an hour, all cohorts): no infusion reactions; Clinically significant abnormalities following telavancin administration ([1]; worsened ALT and LDH in one Cohort 1 subject, prolonged QT in one Cohort 2 subject, moderate, resolved prior to Day 8): three; Creatinine ([2]; Cohort 1 (12 to 17 years), 9 subjects, pre-dose 0.6 ± 0.2 (N = 14)): 1.0 ± 1.1 mg/dL; Total bilirubin ([2]; Cohort 1 (12 to 17 years), 9 subjects, pre-dose 0.6 ± 0.3 (N = 14)): 0.3 ± 0.2 mg/dL; Leukocytes ([2]; Cohort 1 (12 to 17 years), 9 subjects, pre-dose 10.3 ± 3.1 (N = 14)): 7.3 ± 2.0 x10^9/L; Hemoglobin ([2]; Cohort 1 (12 to 17 years), 9 subjects, pre-dose 12.2 ± 1.7 (N = 14)): 12.1 ± 1.4 g/dL; Alanine aminotransferase ([2]; Cohort 1 (12 to 17 years), 9 subjects, pre-dose 25.9 ± 15.1 (N = 14)): 37.4 ± 24.2 IU/L; Aspartate aminotransferase ([2]; Cohort 1 (12 to 17 years), 9 subjects, pre-dose 50.9 ± 56.2 (N = 14)): 72.8 ± 72.0 IU/L; Platelets ([2]; Cohort 1 (12 to 17 years), 9 subjects, pre-dose 226 ± 69.1 (N = 14)): 236 ± 85.9 x10^9/L; Lactate dehydrogenase ([2]; Cohort 1 (12 to 17 years), 9 subjects, pre-dose 361 ± 247 (N = 14)): 439 ± 270 IU/L; Creatinine ([2]; Cohort 2 (6 to 11 years), 6 subjects, pre-dose 0.4± 0.1 (N = 7)): 0.4 ± 0.1 mg/dL; Total bilirubin ([2]; Cohort 2 (6 to 11 years), 6 subjects, pre-dose 0.6 ± 0.5 (N = 7)): 0.5 ± 0.3 mg/dL; Leukocytes ([2]; Cohort 2 (6 to 11 years), 6 subjects, pre-dose 8.3 ± 3.0 (N = 7)): 6.3 ± 1.3 x10^9/L; Hemoglobin ([2]; Cohort 2 (6 to 11 years), 6 subjects, pre-dose 11.7 ± 1.4 (N = 7)): 11.9 ± 1.4 g/dL; Alanine aminotransferase ([2]; Cohort 2 (6 to 11 years), 6 subjects, pre-dose 30.9 ± 12.2 (N = 7)): 36.8 ± 19.4 IU/L; Aspartate aminotransferase ([2]; Cohort 2 (6 to 11 years), 6 subjects, pre-dose 41.6 ± 26.0 (N = 7)): 46.7 ± 40.7 IU/L; Platelets ([2]; Cohort 2 (6 to 11 years), 6 subjects, pre-dose 267 ± 73.6 (N = 7)): 289 ± 105.5 x10^9/L; Creatinine ([2]; Cohort 3 (2 to 5 years), N = 1, pre-dose 0.2 ± 0.0): 0.2 ± 0.0 mg/dL; Total bilirubin ([2]; Cohort 3 (2 to 5 years), N = 1, pre-dose 0.4 ± 0.0): 0.4 ± 0.0 mg/dL; Leukocytes ([2]; Cohort 3 (2 to 5 years), N = 1, pre-dose 4.6 ± 0.0): 7.5 ± 0.0 x10^9/L; Hemoglobin ([2]; Cohort 3 (2 to 5 years), N = 1, pre-dose 10.0 ± 0.0): 10.3 ± 0.0 g/dL; Aspartate aminotransferase ([2]; Cohort 3 (2 to 5 years), N = 1, pre-dose 41.0 ± 0.0): 37.0 ± 0.0 IU/L; Alanine aminotransferase ([2]; Cohort 3 (2 to 5 years), N = 1, pre-dose 72.0 ± 0.0): 62.0 ± 0.0 IU/L
